Measured values reported in paper PMC5224920, “Assessing the mechanism and therapeutic potential of modulators of the human Mediator complex-associated protein kinases” (eLife, 2016).

Test system: 12 single or co-culture in vitro tissue models of primary cells
Assay: Culture/co-culture cell model panel, extracellular biomarkers (DiscoveRx); for CCL2/MCP-1: reference of the scale not given here; for CD141/Thrombomodulin: reference of the scale not given here; for CD142/Tissue Factor: reference of the scale not given here; for CXCL8/IL-8: reference of the scale not given here; for CXCL9/MIG: reference of the scale not given here; for M-CSF: reference of the scale not given here; for SRB: reference of the scale not given here
Format: cell-based, human
[1] = /HDFNo unstimulated fibroblasts, 1.00E0 nM
[2] = /HDFNo unstimulated fibroblasts, 1.00E1 nM
[3] = /HDFNo unstimulated fibroblasts, 1.00E2 nM
[4] = /HDFNo unstimulated fibroblasts, 1.00E3 nM
[5] = /HDFNo unstimulated fibroblasts, 1.00E4 nM

## CN1c2ccc(-c3cncc(Cl)c3N3CCC4(CC3)CNC(=O)O4)cc2CS1(=O)=O [CMPD2]
3C, 1.00E0 nM
  CCL2/MCP-1: 0.00665
  CD54/ICAM-1: -0.015
  CD87/uPAR: -0.232
  CD106/VCAM-1: 0.040
  CD141/Thrombomodulin: 0.035
  CD142/Tissue Factor: 0.086
  CXCL8/IL-8: 0.001
  CXCL9/MIG: -0.002
  HLA-DR: -0.059
  Proliferation: -0.0027
  SRB: -0.057
3C, 1.00E1 nM
  CCL2/MCP-1: -0.088
  CD54/ICAM-1: -0.034
  CD87/uPAR: -0.339
  CD106/VCAM-1: 0.048
  CD141/Thrombomodulin: 0.056
  CD142/Tissue Factor: 0.130
  CXCL8/IL-8: -0.104
  CXCL9/MIG: -0.011
  HLA-DR: -0.129
  Proliferation: -0.036
  SRB: -0.071
3C, 1.00E2 nM
  CCL2/MCP-1: -0.157
  CD54/ICAM-1: -0.046
  CD87/uPAR: -0.368
  CD106/VCAM-1: 0.046
  CD141/Thrombomodulin: 0.051
  CD142/Tissue Factor: 0.120
  CXCL8/IL-8: -0.212
  CXCL9/MIG: -0.016
  HLA-DR: -0.138
  Proliferation: -0.098
  SRB: -0.085
3C, 1.00E3 nM
  CCL2/MCP-1: -0.150
  CD54/ICAM-1: -0.055
  CD87/uPAR: -0.368
  CD106/VCAM-1: 0.045
  CD141/Thrombomodulin: 0.055
  CD142/Tissue Factor: 0.116
  CXCL8/IL-8: -0.275
  CXCL9/MIG: -0.019
  HLA-DR: -0.153
  Proliferation: -0.074
  SRB: -0.078
3C, 1.00E4 nM
  CCL2/MCP-1: -0.161
  CD54/ICAM-1: -0.041
  CD87/uPAR: -0.370
  CD106/VCAM-1: 0.044
  CD141/Thrombomodulin: 0.020
  CD142/Tissue Factor: 0.089
  CXCL8/IL-8: -0.273
  CXCL9/MIG: -0.019
  HLA-DR: -0.147
  Proliferation: -0.089
  SRB: -0.086
/HDF3CT, 1.00E0 nM
  CCL2/MCP-1: -0.00225
  CD54/ICAM-1: -0.030
  CD106/VCAM-1: 0.019
  CXCL8/IL-8: -0.027
  CXCL9/MIG: 0.019
  CXCL10/IP-10: 0.006
  Collagen I: -0.00072
  M-CSF: 0.017
  MMP-1: 0.072
  PAI-I: 0.018
  SRB: 0.014
  TIMP-2: 0.034
/HDF3CT, 1.00E1 nM
  CCL2/MCP-1: -0.044
  CD54/ICAM-1: -0.067
  CD106/VCAM-1: 0.019
  CXCL8/IL-8: -0.054
  CXCL9/MIG: 0.015
  CXCL10/IP-10: 0.022
  Collagen I: -0.038
  M-CSF: -0.031
  MMP-1: 0.112
  PAI-I: -0.053
  SRB: -0.00569
  TIMP-2: 0.057
/HDF3CT, 1.00E2 nM
  CCL2/MCP-1: -0.108
  CD54/ICAM-1: -0.073
  CD106/VCAM-1: 0.009
  CXCL8/IL-8: -0.154
  CXCL9/MIG: -0.031
  CXCL10/IP-10: 0.011
  Collagen I: -0.041
  M-CSF: -0.045
  MMP-1: 0.027
  PAI-I: -0.092
  SRB: -0.00555
  TIMP-2: 0.013
/HDF3CT, 1.00E3 nM
  CCL2/MCP-1: -0.094
  CD54/ICAM-1: -0.080
  CD106/VCAM-1: -0.001
  CXCL8/IL-8: -0.182
  CXCL9/MIG: -0.043
  CXCL10/IP-10: 0.00749
  Collagen I: -0.064
  M-CSF: -0.064
  MMP-1: 0.014
  PAI-I: -0.119
  SRB: -0.020
  TIMP-2: 0.052
/HDF3CT, 1.00E4 nM
  CCL2/MCP-1: -0.114
  CD54/ICAM-1: -0.089
  CD106/VCAM-1: 0.006
  CXCL8/IL-8: -0.206
  CXCL9/MIG: -0.053
  CXCL10/IP-10: 0.009
  Collagen I: -0.042
  M-CSF: -0.068
  MMP-1: 0.035
  PAI-I: -0.129
  SRB: 0.00189
  TIMP-2: 0.072
[1]
  CXCL8/IL-8: 0.063
  CXCL9/MIG: 0.141
  CXCL10/IP-10: 0.082
  CXCL11/I-TAC: 0.071
  EGFR: 0.035
  M-CSF: 0.081
  MMP-1: 0.152
  PAI-I: 0.049
  Proliferation_72hr: 0.007
  SRB: 0.029
  TIMP-1: 0.066
  TIMP-2: 0.143
[2]
  CXCL8/IL-8: -0.030
  CXCL9/MIG: 0.069
  CXCL10/IP-10: 0.062
  CXCL11/I-TAC: 0.000639
  EGFR: 0.025
  M-CSF: 0.039
  MMP-1: 0.095
  PAI-I: 0.00174
  Proliferation_72hr: 0.026
  SRB: -0.013
  TIMP-1: 0.023
  TIMP-2: 0.114
[3]
  CXCL8/IL-8: 0.056
  CXCL9/MIG: 0.068
  CXCL10/IP-10: 0.052
  CXCL11/I-TAC: -0.029
  EGFR: 0.009
  M-CSF: 0.012
  MMP-1: 0.109
  PAI-I: 0.059
  Proliferation_72hr: 0.043
  SRB: -0.046
  TIMP-1: 0.021
  TIMP-2: 0.081
[4]
  CXCL8/IL-8: -0.00424
  CXCL9/MIG: 0.019
  CXCL10/IP-10: 0.029
  CXCL11/I-TAC: 0.022
  EGFR: 0.016
  M-CSF: 0.038
  MMP-1: 0.108
  PAI-I: 0.005
  Proliferation_72hr: 0.043
  SRB: -0.011
  TIMP-1: -0.038
  TIMP-2: 0.090
[5]
  CXCL8/IL-8: 0.043
  CXCL9/MIG: 0.044
  CXCL10/IP-10: 0.051
  CXCL11/I-TAC: -0.015
  EGFR: 0.031
  M-CSF: -0.007
  MMP-1: 0.080
  PAI-I: 0.026
  Proliferation_72hr: 0.023
  SRB: -0.018
  TIMP-1: -0.039
  TIMP-2: 0.105
/HDFNo, 1.00E0 nM
  CCL2/MCP-1: 0.045
  CD54/ICAM-1: 0.099
  CD106/VCAM-1: 0.066
  Collagen I: 0.074
  Collagen III: 0.041
/HDFNo, 1.00E1 nM
  CCL2/MCP-1: 0.107
  CD54/ICAM-1: 0.090
  CD106/VCAM-1: 0.050
  Collagen I: 0.084
  Collagen III: 0.042
/HDFNo, 1.00E2 nM
  CCL2/MCP-1: 0.018
  CD54/ICAM-1: 0.060
  CD106/VCAM-1: 0.020
  Collagen I: 0.100
  Collagen III: 0.061
/HDFNo, 1.00E3 nM
  CCL2/MCP-1: -0.027
  CD54/ICAM-1: 0.063
  CD106/VCAM-1: 0.049
  Collagen I: 0.108
